Measurements reported in patent publication US8822526B2, “Synergistic pharmaceutical combination for the treatment of cancer” (Piramal Enterprises Limited, priority 2007, dated 2014).

Columns and labels:
[1] = system: human non-small cell lung carcinoma H-460; test: Annexin V-FITC staining (detection of early apoptosis); format: cell-based; details: doxorubicin 100 nM 24 hours; compound A 1200 nM 96 hours; combination doxorubicin 24 hours followed by compound A 96 hours
Procedure: Annexin V-FITC is a sensitive probe for identifying apoptotic cells. During early apoptosis the membrane phospholipid phosphotidyl serine (PS) is translocated from the inner to the outer leaflet of the plasma membrane, thereby exposing PS to the external cellular environment. Annexin V is a 35-36 kDa Calcium phospholipid binding protein that has a high affinity for PS and binds to cells with exposed PS. […] The human non-small cell lung carcinoma H-460 was seeded in 25 mm^3 tissue culture flasks. […] The control cells were left untreated for 120 hours. Medium containing floating cells were collected and pooled with the adherent cells after harvesting with trypsin at the different time points. The cells were washed twice with cold PBS with centrifugation at 1000 rpm for 10 minutes. The cell pellet was resuspended in 1× binding buffer (10 mm HEPES pH 7.4, 140 mM NaCl, 2.5 mM CaCl2) at a concentration of 1×10^6 cells/mL. 100 μl of the solution (1×10^5 cells) were stained with Annexin V-FITC and Propidium Iodide. The cells were incubated for 15 minutes at room temperature in the dark and the sample was analysed by flow cytometry. A Becton Dickinson FACS Calibur flow cytometer was used for these studies in accordance with the manufacturer's recommendations. The argon ion laser set at 488 nm was used as an excitation source. […] If the cells even after the termination of compound exposure continue to go into apoptosis, they would stain positive for annexin. The cells once in early apoptosis are committed to programmed cell death and at a point of no return.

COX-2 = test: Western blot analysis using COX-2 antibody; format: in vivo, human; details: H-460 tumor xenograft; FIG. 9
Text: FIG. 9 indicates western blot analysis using COX-2 antibody.
Therefore, NFκB mediated inhibition of COX-2 by the compound A could be involved in suppressing tumor growth and doxorubicin induced chemoresistance in human non-small cell lung carcinoma (H-460) tumor xenograft.

[2] = system: human non-small cell lung carcinoma H-460; test: Analysis of cell cycle distribution and flow cytometry (sub G1 apoptosis); format: cell-based
Procedure: The human non-small cell lung carcinoma H-460 was seeded in 25 mm^3 tissue culture flasks. […] The control cells were left untreated for 96 hours or 120 hours. Both detached and adherent cells were harvested at different time points. The cells were washed twice with approximately 5 mL of PBS with centrifugation at 1000 rpm for 10 minutes. The cells were re-suspended in 500 μL of PBS and fixed in 500 μL ice-cold 70% ethanol. The fixed cells were incubated at room temperature for 30 minutes, spun at 1000 rpm for 10 minutes. To the cell pellet 1 mL of chilled 70% ethanol was added and the cell pellet was then kept in fridge till further analysis. Cells were washed twice with PBS to remove fixative and re-suspended in 250 μL PBS. To this 50 μL of propidium iodide (4 mg/mL in PBS) and 12.5 μL Rnase A (1 mg/mL) was added. After incubation at 37° C. for 30 minutes, cells were analyzed using flow cytometry.
A Becton Dickinson FACS Calibur flow cytometer was used in accordance with the manufacturer's recommendations. The argon ion laser set at 488 nm was used as an excitation source. Cells with DNA content between 2n and 4n were designated as being in G1, S and G2/M phases of the cell cycle, as defined by the level of red fluorescence. […] The number of cells in each cell cycle compartment was expressed as a percentage of the total number of cells present
About 1-2×10^6 cells were seeded in a tissue culture flask for the treatment groups. The assay protocol was as mentioned above in “analysis of cell cycle distribution and flow cytometry”. The cell cycle was divided in four parts, which are represented in the FIG. 1 as M1, M2, M3 and M4. M1 corresponds to the G1 phase, M2 to the S phase, M3 to the G2-M phase and M4 to the sub G1 phase, which represents the cells undergoing apoptosis.
About 1-2×10^6 cells were seeded in a tissue culture flask for the treatment groups. The assay protocol was as mentioned above in “analysis of cell cycle distribution and flow cytometry”. The cell cycle was divided in four parts, which are represented in the figure as M1, M2, M3 and M4. M1 corresponds to the G1 phase, M2 to the S phase, M3 to the G2-M phase and M4 to the sub G1 phase, which represents the cells undergoing apoptosis.

Cdk1 = test: Western blot analysis; format: cell-based, human; details: H-460; doxorubicin 100 nM 24 hours; compound A 1200 nM 96 hours; combination sequential; FIG. 6
Procedure: (§1) At the end of the treatment period cells were lysed and protein content of the lysate was estimated using the Bradford reagent. 40 μg of protein was loaded on SDS-PAGE and transferred on PVDF membrane. The membranes were probed with p53, Bax, Bcl-2, cyclin D1, Cdk1 and actin antibodies. The primary antibody were detected with horseradish […] secondary antibody and subjected to west pico chemiluminescence reagents.
(§2) Equal amount of protein was loaded in the four lanes. The different samples loaded in the wells are described in the figure legend. […] This correlates with the increased apoptosis seen in the combination treatment in FACS analysis. The pro-apoptotic protein Bax is slightly up regulated with respect to control in all treatment samples. […] Cdk1-B1 is an initiator of mitosis. The deregulation of this enzyme leads to tumorigenesis.

cyclin D1 = test: Western blot analysis; format: cell-based, human; details: H-460; doxorubicin 100 nM 24 hours; compound A 1200 nM 96 hours; combination sequential; FIG. 6
Procedure: as §1, §2

[3] = FIG. 1: 200 nM doxorubicin alone (24 hours), 800 nM compound A alone (72 hours), combination 200 nM doxorubicin (24 hours) followed by 800 nM compound A (72 hours)
[4] = FIG. 2: 100 nM doxorubicin alone (24 hours), 1200 nM compound A alone (96 hours), combination 100 nM doxorubicin (24 hours) followed by 1200 nM compound A (96 hours)

Structure (SMILES)	Annexin + ve (%) (cells in early apoptosis) [1]	Annexin and PI + ve (%) (cells in early to late apoptosis) [1]	Live cells (%) (healthy cells) [1]	PI + ve (%) (dead cells) [1]	COX-2 levels (western blot) (COX-2)	apoptosis (sub G1 phase) [2, 3]	apoptosis (sub G1 phase) [2, 4]	Cdk1 levels (western blot) (Cdk1)	Cyclin D1 levels (western blot) (cyclin D1)
CN1CC[C@@H](c2c(O)cc(O)c3c(=O)cc(-c4ccccc4Cl)oc23)[C@@H]1CO.Cl [Compound A, (+)-trans-2-(2-Chloro-phenyl)-5,7-dihydroxy-8-(2-hydroxymethyl-1-methyl-pyrrolidin-3-yl)-chromen-4-one hydrochloride]	38.5%	8.2%	53%	0.3%	low levels of COX-2	10%	32%	levels equal to control	slight reduction
COc1cccc2c1C(=O)c1c(O)c3c(c(O)c1C2=O)C[C@@](O)(C(=O)CO)C[C@@H]3O[C@H]1C[C@H](N)[C@H](O)[C@H](C)O1 [Doxorubicin]	30.4%	8.6%	60%	1%	strongly induced COX-2	10%	3%	significantly induces Cdk1 levels	slight reduction
